Results taken from US11076597B2, “High stress resistant plant growth regulator and preparation method and use thereof” (SHANGHAI INSTITUTES FOR BIOLOGICAL SCIENCES, CHINESE …, priority 2015, dated 2021).
Like-named read-outs stand apart in the source and are kept apart here.

Assays:
[1] = target: T1, PYL2 receptor-HAB1 protein phosphatase complex (Arabidopsis thaliana, UniProt O80992); experiment: AlphaScreen assay, PYL2 receptor binding to HAB1; type: biochemical; details: fraction of the EC50 of ABA; FIG. 2c, 2e-2g
T1 construct: made in house; host or cells: E. coli BL21 (DE3)
T1 sequence (O80992 14-188): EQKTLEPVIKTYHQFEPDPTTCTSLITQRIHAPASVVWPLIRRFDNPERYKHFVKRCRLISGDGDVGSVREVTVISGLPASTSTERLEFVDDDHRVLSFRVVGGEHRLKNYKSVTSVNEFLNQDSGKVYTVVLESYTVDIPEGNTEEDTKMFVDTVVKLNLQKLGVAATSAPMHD
T1 sequence (Q9CAJ0 172-511 partner limits assumed): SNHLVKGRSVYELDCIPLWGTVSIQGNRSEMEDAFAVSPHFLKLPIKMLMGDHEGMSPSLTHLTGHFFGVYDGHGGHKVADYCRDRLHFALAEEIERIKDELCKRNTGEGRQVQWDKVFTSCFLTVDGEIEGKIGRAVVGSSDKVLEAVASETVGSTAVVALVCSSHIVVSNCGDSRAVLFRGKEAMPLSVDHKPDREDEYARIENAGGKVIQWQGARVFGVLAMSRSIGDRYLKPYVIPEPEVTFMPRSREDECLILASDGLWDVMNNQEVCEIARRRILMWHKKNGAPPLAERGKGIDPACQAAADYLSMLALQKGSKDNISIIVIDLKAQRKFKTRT
Procedure: The AlphaScreen kit (available from Perkin Elmer) was used, and the method was as follows: a 10× buffer (50 mM MOPS, pH 7.4, 50 mM NaF, 50 mM CHAPS, 0.1 mg/ml bovine serum albumin) diluted at 1:10, each of 100 nM HAB1 with Biotin tag sequence and PYR1/PYL1/PYL2/PYL7/GmPYL6/OsPYL2 protein with dual tags of 6×His and SUMO sequences, corresponding concentrations of (+)-ABA/0224/0304/0706/0708/0713/0715/0428/NC0F4, and 5 μg/ml donor beads and acceptor beads (available from Perkin Elmer) were contained in 150 μl of experimental system. After incubating for 1.5 hours at room temperature in the dark, it was placed into an Envision Plate Reader (available from Perkin Elmer) under the programmed AlphaScreen procedure for readings.
AlphaScreen technology was used to test the ability of the compounds of the present invention to promote PYL receptor binding to PP2C protein phosphatase (HAB1).

[2] = target: T2, PYR1 receptor-HAB1 protein phosphatase complex (Arabidopsis thaliana, UniProt O49686); experiment: AlphaScreen assay: promotion of PYR1 receptor binding to PP2C protein phosphatase HAB1; details: 6×His-SUMO-tagged PYR1 (whole coding sequence), Biotin-tagged HAB1 (aa 172-511), 100 nM each, pH 7.4, 1.5 h room temperature
T2 construct: made in house; host or cells: E. coli BL21 (DE3)
T2 sequence (O49686 1-191): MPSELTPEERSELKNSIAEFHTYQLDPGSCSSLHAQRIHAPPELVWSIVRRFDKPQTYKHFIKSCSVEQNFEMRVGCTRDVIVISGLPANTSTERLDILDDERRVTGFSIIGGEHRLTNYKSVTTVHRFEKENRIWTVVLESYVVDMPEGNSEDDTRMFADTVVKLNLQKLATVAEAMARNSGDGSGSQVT
T2 sequence (Q9CAJ0 172-511 partner limits assumed): T1 sequence (Q9CAJ0 172-511 partner limits assumed)
Source text: The construction method of recombinant plasmids for the Arabidopsis thaliana genes PYL1 (amino acid sequence 36-211), PYL2 (amino acid sequence 14-188) with dual tags of 6×His and SUMO sequence and the Arabidopsis thaliana gene HAB1 (amino acid sequence 172-511) with the Biotin tag sequence is described in detail in “A gate-latch-lock mechanism for hormone signaling by abscisic acid receptors” (Nature, Vol 462, 2009). The construction method of recombinant plasmids for PYR1 and PYL7 (whole gene coding sequence) and Soybean GmPYL6 and rice OsPYL2 with dual tags of 6×His and SUMO sequence is the same as that for Arabidopsis PYL2.
The above recombinant plasmid is transformed into competent cell of E. coli BL21 (DE3) (purchased from NEB company), and inoculated into 200 ml of LB liquid medium containing Amp resistance (purchased from OXOID company) and cultured overnight at 37° C. at 200 rpm; and inoculated into 2 L of LB liquid medium containing Amp resistance at a ratio of 1:50-1:100 for an extended culture, and cultured at 37° C., 200 rpm for 3-4 hours, and at a low temperature of 16° C. until OD600 is about 0.8-1.0. Recombinant plasmids for PYR1/PYL1/PYL2/PYL7/GmPYL6/OsPYL2 with dual tags of 6×His and SUMO sequence were induced overnight with 100 μM of IPTG while HAB1 recombinant plasmid with the Biotin tag sequence was induced simultaneously with 100 μM of IPTG and 40 μM of biotin.
After 16 hours of induction, the bacterial solution was centrifuged at 4000 rpm for 20 minutes at 4° C. in a low-speed high-capacity centrifuge, and the bacteria cells were collected. Bacteria cells were resuspended in 50 ml of extraction buffer (containing 20 mM Tris, pH 8.0, 200 mM NaCl and 10% (v/v) glycerol) for per 2 L of bacterial solution and then subjected to pressure-breaking at […] and 4° C. for 3-5 times. The broken cells were subjected to ultracentrifugation, centrifuged at 16000 rpm for 30 minutes, and this process was repeated twice. The supernatant was collected and subjected to an affinity chromatography column.
For PYR/PYL proteins with dual tags of 6×His and SUMO sequences, 50 ml of affinity chromatography Ni column (50 ml Ni-NTA column, available from GE) was used. Firstly, the column was equilibrated with 600 ml of 10% buffer B (containing 20 mM Tris, PH 8.0, 200 mM NaCl, 500 mM imidazole and 10% glycerol), and then eluted with 200 ml of 50% buffer B and finally eluted with 100 ml of 100% buffer B. Proteins for crystal analysis were mixed with ulp1 enzyme at a molar ratio of 1000:1 for enzymatic dialysis overnight. The digested proteins were subjected to affinity chromatography on a Ni column once more. The collected solution was subjected to a HiLoad 26/60 Superdex200 gel filtration column (commercially available from GE) and eluted with an elution solution (containing 25 mM Tris, pH 8.0, 200 mM ammonium acetate, 1 mM dithiotreitol and 1 mM EDTA) to further separate and purify the protein.
For a HAB1 protein with a Biotin tag sequence, it was subjected to a 50 ml MBP affinity column (available from GE). The column was firstly equilibrated with 600 ml of 10% buffer C (containing 20 mM Tris, pH 8.0, 200 mM NaCl, 10 mM Maltose and 10% Glycerol), and eluted with 200 ml of 50% buffer C and finally eluted with 100 ml of 100% buffer C. […]

| Compound | EC50 value with PYL2 receptor-HAB1 complex as fraction of that of ABA [1] | EC50 ([2]; FIG. 2a, read-out: EC50) | EC50 ([2]; EC50, FIG. 2a) | EC50 ([2]; EC50, FIG. 2h) |
| --- | --- | --- | --- | --- |
| CCCN1C(=O)OC(C)(C)c2cc(NS(=O)(=O)Cc3c(F)c(F)c(C)c(F)c3F)ccc21 [Compound 0304] | 1/15 | 0.148 µM |  |  |
| CCCN1C(=O)OCc2cc(NS(=O)(=O)Cc3c(F)c(F)c(C)c(F)c3F)ccc21 [Compound 0428] | about ⅛ |  |  |  |
| Cc1c(F)c(F)c(CS(=O)(=O)Nc2ccc3c(c2)C(C)OC(=O)N3CCCF)c(F)c1F (stereo not drawn) [Compound 0715] | ⅕-⅛ |  |  |  |
| CCN1C(=O)OC(C)c2cc(NS(=O)(=O)Cc3c(F)c(F)c(C)c(F)c3F)ccc21 (stereo not drawn) [Compound 0706] | ⅕-⅛ |  |  |  |
| CCCN1C(=O)OC(C)c2cc(NS(=O)(=O)Cc3c(F)c(F)c(C)c(F)c3F)ccc21 (stereo not drawn) [Compound 0224] | 1/29 | 0.0901 µM |  |  |
| CC1=CC(=O)CC(C)(C)[C@@]1(O)/C=C/C(C)=C\C(=O)O [ABA, Abscisic Acid, reference compound] |  |  | 3.57 µM | 4.22 µM |
